Where two headings read alike, the source gives them in different places.
Key:
[1] = saturated diacyl-sn-glycero-3-phosphocholines, main chain melting transition; cited from earlier work
[2] = cited from earlier work
[3] = Calculated diameter of emulsified droplet to form a 10 μm vesicle (ideal gas law); assay type: physicochemical; details: for Diameter (μm) of emulsified droplet to make 10 micron vesicle: Table 2
Excerpt: As noted above, compositions employed herein may also include, with respect to their preparation, formation and use, gaseous precursors that can be activated to change from a liquid or solid state into a gas by temperature, pH, light, and energy (such as ultrasound). The gaseous precursors may be made into gas by storing the precursors at reduced pressure. For example, a vial stored under reduced pressure may create a headspace of perfluoropentane or perfluorohexane gas, useful for creating a preformed gas prior to injection. Preferably, the gaseous precursors may be activated by temperature. Set forth below is a table listing a series of gaseous precursors which undergo phase transitions from liquid to gaseous states at relatively close to normal body temperature (37° C.) or below, and the size of the emulsified droplets that would be required to form a vesicle of a maximum size of 10 μm.
The ideal gas law, which can be used for calculating the increase in the volume of the gas bubbles upon transitioning from liquid to gaseous states, is as follows: PV=nRT where
Thus, for stabilization of the precursor in the liquid state in a mixture wherein the precursor droplet is spherical, the volume of the precursor droplet may be determined by the equation: Volume (spherical vesicle)=4/3 πr^3 where
(B) where D is the density of the precursor. Solving for the diameter of the liquid droplet, diameter/2=[3/4π[4/3·[πrgas^3]P/RT]MWn/D]^1/3 (C) which reduces to Diameter=2[[rgas^3]P/RT[MWn/D]]^1/3.

[4] = cited from earlier work; for Boiling Point: Table 2, CRC Handbook
myocardium = assay: Ultrasound dose range studies of myocardium echo enhancement before and after coronary vasodilator; assay type: in vivo; details: 20 Kg pig, dipyridamole 0.56 mg/Kg IV over 4 minutes with gas filled vesicles of Example 1
Description: This example includes a description of methods for imaging the cardiovascular region of a patient in accordance with methods within the scope of the present invention.
A 20 Kg pig is anesthetized with isoflurane and a Swan Ganz catheter is inserted to monitor hemodynamics. Dose range studies are conducted using the gas filled vesicles prepared in Example 1 to determine the minimum dose required to enhance the myocardium echo, which is defined as greater than 10 videodensitometry units as determined by repeated videodensity measurements. After the dose range studies are performed, dipyridamole is administered intravenously at a dose of 0.56 mg/Kg over a period of 4 minutes. After a 5 minute latency period, dose range studies are repeated.

[5] = Table 2, CRC Handbook, in g/mL (unit assumed)

Q: With `CCCCCCCCCCCCCCCCCC(=O)OC[C@H](COP(=O)([O-])OCC[N+](C)(C)C)OC(=O)CCCCCCCCCCCCCCCCC` [1,2-(18:0)] as the molecule, how does the “Main Phase Transition Temperature” value [1] read?
A: The value was 55.1 °C.

Q: Which “Main Phase Transition Temperature” value [1] does the source give for `CCCCCCCCCCCCCCC(=O)OC[C@H](COP(=O)([O-])OCC[N+](C)(C)C)OC(=O)CCCCCCCCCCCCCC` [1,2-(15:0)] here?
A: Its value is 34.5 °C.

Q: With `CCCCCCCCCCCCCCCCCCC(=O)OC[C@H](COP(=O)([O-])OCC[N+](C)(C)C)OC(=O)CCCCCCCCCCCCCCCCCC` [1,2-(19:0)] as the molecule, how does the “Main Phase Transition Temperature” value [1] read?
A: The value was 61.8 °C.

Q: Which Density [2, 5] does the source give for `FC(F)(F)C(F)(F)F` [hexafluoro ethane] here?
A: The Density was 1.607.

Q: And the “Diameter (μm) of emulsified droplet to make 10 micron vesicle” value (“Diameter (μm) of emulsified droplet” below) [3]?
A: Its value is 2.7 μm.

Q: Which “Boiling Point” value [4] does the source give for `C#CC(C)C` [3-methyl-1-butyne] here?
A: The value was 29.5 °C.

Q: And the Density [2, 5]?
A: The Density was 0.6660.

Q: What about the “Diameter (μm) of emulsified droplet” value [3] of the same molecule?
A: Its value is 2.5 μm.

Q: Which results are given for `CCCCF` [1-fluorobutane]?
A: Boiling Point [4]: 32.5 °C; liquid/gas phase transition temperature (boiling point) [4]: 32.5 °C; Density [2, 5]: 0.6779; Density ([2]; at 20° C.): 0.7789 g/mL; Diameter (μm) of emulsified droplet to make 10 micron vesicle [3]: 1.2 μm; diameter of emulsion droplets to make a gaseous precursor filled vesicle with an upper limit of 10 μm ([3]; equation (C), 37° C., 1 atmosphere): 0.0544 μm

Q: Which “Main Phase Transition Temperature” value [1] does the source give for `CCCCCCCCCCCCCCCCCCCCCC(=O)OC[C@H](COP(=O)([O-])OCC[N+](C)(C)C)OC(=O)CCCCCCCCCCCCCCCCCCCCC` [1,2-(22:0)] here?
A: The value was 74.0 °C.

Q: With `CC=C(C)C` [2-methyl-2-butene] as the molecule, how does the “Boiling Point” value [4] read?
A: Its value is 38.6 °C.

Q: And the Density [2, 5]?
A: The Density was 0.6623.

Q: And the “Diameter (μm) of emulsified droplet” value [3]?
A: The value was 2.5 μm.

Q: With `CCCCCCCCCCCC(=O)OC[C@H](COP(=O)([O-])OCC[N+](C)(C)C)OC(=O)CCCCCCCCCCC` [1,2-(12:0)] as the molecule, how does the “Main Phase Transition Temperature” value [1] read?
A: The value was −1.0 °C.

Q: Which “Main Phase Transition Temperature” value [1] does the source give for `CCCCCCCCCCCCCCCCC(=O)OC[C@H](COP(=O)([O-])OCC[N+](C)(C)C)OC(=O)CCCCCCCCCCCCCCCC` [1,2-(17:0)] here?
A: The value was 48.2 °C.

Q: For `FC1(F)C(F)(F)C(F)(F)C1(F)F` [octafluoro cyclobutane, octafluorocyclobutane], which “Boiling Point” value [4] is on record?
A: Its value is −5.8 °C.

Q: And the Density [2, 5]?
A: The Density was 1.48.

Q: And the “Diameter (μm) of emulsified droplet” value [3]?
A: Its value is 2.8 μm.

Q: For `FC(F)(F)C(F)(F)C(F)(F)C(F)(F)F` [decafluoro butane, perfluorobutane], which “Boiling Point” value [4] is on record?
A: Its value is −2 °C.

Q: What about the “liquid/gas phase transition temperature (boiling point)” value [4] of the same molecule?
A: The value was 4 °C.

Q: What about the Density [2, 5] of the same molecule?
A: The Density was 1.517.

Q: What about the “Diameter (μm) of emulsified droplet” value [3] of the same molecule?
A: Its value is 3.0 μm.

Q: With `FC(F)(F)C(F)(F)C(F)(F)C(F)(F)C(F)(F)C(F)(F)F` [perfluorohexane] as the molecule, how does the “liquid/gas phase transition temperature (boiling point)” value [4] read?
A: The value was 57 °C.

Q: With `CCCCCCCCCCCCCCCCCCCC(=O)OC[C@H](COP(=O)([O-])OCC[N+](C)(C)C)OC(=O)CCCCCCCCCCCCCCCCCCC` [1,2-(20:0)] as the molecule, how does the “Main Phase Transition Temperature” value [1] read?
A: The value was 64.5 °C.

Q: With `CCCCCCCCCCCCCCCC(=O)OC[C@H](COP(=O)([O-])OCC[N+](C)(C)C)OC(=O)CCCCCCCCCCCCCCC` [1,2-(16:0)] as the molecule, how does the “Main Phase Transition Temperature” value [1] read?
A: The value was 41.4 °C.

Q: For `OCCN(CCO)c1nc(N2CCCCC2)c2nc(N(CCO)CCO)nc(N3CCCCC3)c2n1` [dipyridamole], which diagnostic artifacts (myocardium) is on record?
A: The diagnostic artifacts was “substantially eliminated”.

Q: What about the “dosage of contrast agent required to obtain a medically useful diagnostic image of the cardiovascular region” value (myocardium; after vs before dipyridamole) of the same molecule?
A: The value was “significantly smaller dosage”.

Q: With 2-methyl 1-butene as the molecule, how does the “Boiling Point” value [4] read?
A: Its value is 31.2 °C.

Q: And the Density [2, 5]?
A: The Density was 0.6504.

Q: And the “Diameter (μm) of emulsified droplet” value [3]?
A: Its value is 2.5 μm.

Q: For `CCCCCCCCCCCCCCCCCCCCCCCC(=O)OCC(COP(=O)([O-])OCC[N+](C)(C)C)OC(=O)CCCCCCCCCCCCCCCCCCCCCCC` (stereo not shown) [1,2-(24:0)], which “Main Phase Transition Temperature” value [1] is on record?
A: The value was 80.1 °C.

Q: Which “Main Phase Transition Temperature” value [1] does the source give for `CCCCCCCCCCCCCC(=O)OC[C@H](COP(=O)([O-])OCC[N+](C)(C)C)OC(=O)CCCCCCCCCCCCC` [1,2-(14:0)] here?
A: Its value is 23.5 °C.

Q: Which “Main Phase Transition Temperature” value [1] does the source give for `CCCCCCCCCCCCCCCCCCCCCCC(=O)OCC(COP(=O)([O-])OCC[N+](C)(C)C)OC(=O)CCCCCCCCCCCCCCCCCCCCCC` (stereo not shown) [1,2-(23:0)] here?
A: The value was 79.5 °C.

Q: Which “Main Phase Transition Temperature” value [1] does the source give for `CCCCCCCCCCCCCCCCCCCCC(=O)OC[C@H](COP(=O)([O-])OCC[N+](C)(C)C)OC(=O)CCCCCCCCCCCCCCCCCCCC` [1,2-(21:0)] here?
A: Its value is 71.1 °C.

Q: Which “Boiling Point” value [4] does the source give for `C#CC(=C)C` [1-butene-3-yne-2-methyl] here?
A: Its value is 34.0 °C.

Q: What about the Density [2, 5] of the same molecule?
A: Its Density is 0.6801.

Q: What about the “Diameter (μm) of emulsified droplet” value [3] of the same molecule?
A: Its value is 2.4 μm.

Q: Which results are given for `FC(F)(F)C(F)(F)C(F)(F)C(F)(F)C(F)(F)F` [perfluoro pentane, perfluoropentane]?
A: Boiling Point [4]: 29.5 °C; liquid/gas phase transition temperature (boiling point) [4]: 29.5 °C; Density [2, 5]: 1.7326; Diameter (μm) of emulsified droplet to make 10 micron vesicle [3]: 2.9 μm

Q: Which “Main Phase Transition Temperature” value [1] does the source give for `CCCCCCCCCCCCC(=O)OC[C@H](COP(=O)([O-])OCC[N+](C)(C)C)OC(=O)CCCCCCCCCCCC` [1,2-(13:0)] here?
A: The value was 13.7 °C.

Q: For `CCC(C)C` [2-methyl butane (isopentane), 2-methyl butane], which Density [2, 5] is on record?
A: The Density was 0.6201.

Q: And the “Diameter (μm) of emulsified droplet” value [3]?
A: Its value is 2.6 μm.

— patent US6884407B1, “Methods for diagnostic imaging involving the use of a contrast agent and a coronary vasodilator” (Bristol-Myers Squibb Pharma Company, priority 1996, dated 2005)
